Laboratory results taken from ChEMBL document CHEMBL3585310, “Synthesis and evaluation of artesunateindoloquinoline hybrids as antimalarial drug candidates” (Medchemcomm, 2014).

Target: Heme
Assay: Binding affinity to heme assessed as inhibition of beta-hematin formation by NP40 detergent based assay
Conditions: not given

Row | Compound | IC50 [µM]
1 | COC(=O)c1ccc2c(c1)c(NCCCNC(=O)CCC(=O)O[C@@H]1O[C@@H]3O[C@@]4(C)CC[C@H]5CCC[C@@H]([C@H]1C)[C@]53OO4)c1c3ccccc3nc-1n2C | 29.2
2 | C[C@H]1[C@H](OC(=O)CCC(=O)NCC(C)(C)CNc2c3c4ccccc4nc-3n(C)c3ccc(Br)cc23)O[C@@H]2O[C@@]3(C)CC[C@H]4CCC[C@@H]1[C@]42OO3 | 28.9
3 | NCCCNc1nc2ccccc2c2[nH]c3ccccc3c12 | 627
4 | COC(=O)c1ccc2c(c1)c(NCCCN)c1c3ccccc3nc-1n2C | 104
5 | C[C@H]1[C@H](OC(=O)CCC(=O)NCC(C)(C)CNc2c3c4ccccc4nc-3n(C)c3ccccc23)O[C@@H]2O[C@@]3(C)CC[C@H]4CCC[C@@H]1[C@]42OO3 | 70.2
6 | COC(=O)c1ccc2c(c1)c(NCC(O)CNC(=O)CCC(=O)O[C@@H]1O[C@@H]3O[C@@]4(C)CC[C@H]5CCC[C@@H]([C@H]1C)[C@]53OO4)c1c3ccccc3nc-1n2C (stereo partly drawn) | 41.7

Test system: L6
Assay: Cytotoxicity against rat L6 cells
Assay type: cell-based
Conditions: not given

Row | Compound | IC50 [µM]
7 | COC(=O)c1ccc2c(c1)c(NCCCNC(=O)CCC(=O)O[C@@H]1O[C@@H]3O[C@@]4(C)CC[C@H]5CCC[C@@H]([C@H]1C)[C@]53OO4)c1c3ccccc3nc-1n2C | 3.72
8 | C[C@H]1[C@H](OC(=O)CCC(=O)NCC(C)(C)CNc2c3c4ccccc4nc-3n(C)c3ccc(Br)cc23)O[C@@H]2O[C@@]3(C)CC[C@H]4CCC[C@@H]1[C@]42OO3 | 0.991
9 | C[C@H]1[C@H](OC(=O)CCC(=O)NCC(C)(C)CNc2c3c4ccccc4nc-3n(C)c3ccccc23)O[C@@H]2O[C@@]3(C)CC[C@H]4CCC[C@@H]1[C@]42OO3 | 2.96
10 | COC(=O)c1ccc2c(c1)c(NCC(O)CNC(=O)CCC(=O)O[C@@H]1O[C@@H]3O[C@@]4(C)CC[C@H]5CCC[C@@H]([C@H]1C)[C@]53OO4)c1c3ccccc3nc-1n2C (stereo partly drawn) | 1.22

Test system: Plasmodium falciparum
Assay: Antiplasmodial activity against chloroquine-sensitive Plasmodium falciparum NF54
Assay type: functional, organism-based
Conditions: not given

Row | Compound | IC50 [µM]
11 | COC(=O)c1ccc2c(c1)c(NCCCNC(=O)CCC(=O)O[C@@H]1O[C@@H]3O[C@@]4(C)CC[C@H]5CCC[C@@H]([C@H]1C)[C@]53OO4)c1c3ccccc3nc-1n2C | 0.00288
12 | C[C@H]1[C@H](OC(=O)CCC(=O)NCC(C)(C)CNc2c3c4ccccc4nc-3n(C)c3ccc(Br)cc23)O[C@@H]2O[C@@]3(C)CC[C@H]4CCC[C@@H]1[C@]42OO3 | 0.00321
13 | C[C@H]1[C@H](OC(=O)CCC(=O)NCC(C)(C)CNc2c3c4ccccc4nc-3n(C)c3ccccc23)O[C@@H]2O[C@@]3(C)CC[C@H]4CCC[C@@H]1[C@]42OO3 | 0.00114
14 | COC(=O)c1ccc2c(c1)c(NCC(O)CNC(=O)CCC(=O)O[C@@H]1O[C@@H]3O[C@@]4(C)CC[C@H]5CCC[C@@H]([C@H]1C)[C@]53OO4)c1c3ccccc3nc-1n2C (stereo partly drawn) | 0.00148

Test system: not listed separately
Assay: Selectivity index, ratio of IC50 for rat L6 cells to IC50 for chloroquine-sensitive Plasmodium falciparum NF54
Assay type: toxicity, cell-based
Conditions: L6 cells (cytotoxicity) versus Plasmodium falciparum NF54, read-out: Ratio IC50

Row | Compound | selectivity ratio
15 | COC(=O)c1ccc2c(c1)c(NCCCNC(=O)CCC(=O)O[C@@H]1O[C@@H]3O[C@@]4(C)CC[C@H]5CCC[C@@H]([C@H]1C)[C@]53OO4)c1c3ccccc3nc-1n2C | 1290
16 | C[C@H]1[C@H](OC(=O)CCC(=O)NCC(C)(C)CNc2c3c4ccccc4nc-3n(C)c3ccc(Br)cc23)O[C@@H]2O[C@@]3(C)CC[C@H]4CCC[C@@H]1[C@]42OO3 | 309
17 | NCCCNc1nc2ccccc2c2[nH]c3ccccc3c12 | 45.8
18 | C[C@H]1[C@H](OC(=O)CCC(=O)NCC(C)(C)CNc2c3c4ccccc4nc-3n(C)c3ccccc23)O[C@@H]2O[C@@]3(C)CC[C@H]4CCC[C@@H]1[C@]42OO3 | 2600
19 | COC(=O)c1ccc2c(c1)c(NCC(O)CNC(=O)CCC(=O)O[C@@H]1O[C@@H]3O[C@@]4(C)CC[C@H]5CCC[C@@H]([C@H]1C)[C@]53OO4)c1c3ccccc3nc-1n2C (stereo partly drawn) | 826

Test system: Plasmodium falciparum
Assay: Antiplasmodial activity against chloroquine-resistant Plasmodium falciparum K1
Assay type: functional, organism-based
Conditions: not given

Row | Compound | IC50 [µM]
20 | COC(=O)c1ccc2c(c1)c(NCCCNC(=O)CCC(=O)O[C@@H]1O[C@@H]3O[C@@]4(C)CC[C@H]5CCC[C@@H]([C@H]1C)[C@]53OO4)c1c3ccccc3nc-1n2C | 0.001
21 | C[C@H]1[C@H](OC(=O)CCC(=O)NCC(C)(C)CNc2c3c4ccccc4nc-3n(C)c3ccc(Br)cc23)O[C@@H]2O[C@@]3(C)CC[C@H]4CCC[C@@H]1[C@]42OO3 | 0.00095
22 | C[C@H]1[C@H](OC(=O)CCC(=O)NCC(C)(C)CNc2c3c4ccccc4nc-3n(C)c3ccccc23)O[C@@H]2O[C@@]3(C)CC[C@H]4CCC[C@@H]1[C@]42OO3 | 0.00093
23 | COC(=O)c1ccc2c(c1)c(NCC(O)CNC(=O)CCC(=O)O[C@@H]1O[C@@H]3O[C@@]4(C)CC[C@H]5CCC[C@@H]([C@H]1C)[C@]53OO4)c1c3ccccc3nc-1n2C (stereo partly drawn) | 0.0004

Test system: Plasmodium falciparum
Assay: Resistance index, ratio of IC50 for chloroquine-resistant Plasmodium falciparum K1 to IC50 chloroquine-sensitive Plasmodium falciparum NF54
Assay type: functional
Conditions: not given

Row | Compound | Ratio IC50
24 | COC(=O)c1ccc2c(c1)c(NCCCNC(=O)CCC(=O)O[C@@H]1O[C@@H]3O[C@@]4(C)CC[C@H]5CCC[C@@H]([C@H]1C)[C@]53OO4)c1c3ccccc3nc-1n2C | 0.35
25 | C[C@H]1[C@H](OC(=O)CCC(=O)NCC(C)(C)CNc2c3c4ccccc4nc-3n(C)c3ccc(Br)cc23)O[C@@H]2O[C@@]3(C)CC[C@H]4CCC[C@@H]1[C@]42OO3 | 0.3
26 | NCCCNc1nc2ccccc2c2[nH]c3ccccc3c12 | 6
27 | C[C@H]1[C@H](OC(=O)CCC(=O)NCC(C)(C)CNc2c3c4ccccc4nc-3n(C)c3ccccc23)O[C@@H]2O[C@@]3(C)CC[C@H]4CCC[C@@H]1[C@]42OO3 | 0.82
28 | COC(=O)c1ccc2c(c1)c(NCC(O)CNC(=O)CCC(=O)O[C@@H]1O[C@@H]3O[C@@]4(C)CC[C@H]5CCC[C@@H]([C@H]1C)[C@]53OO4)c1c3ccccc3nc-1n2C (stereo partly drawn) | 0.27

Test system: not listed separately
Assay: Selectivity index, ratio of IC50 for rat L6 cells to IC50 for chloroquine-resistant Plasmodium falciparum K1
Assay type: toxicity, cell-based
Conditions: L6 cells (cytotoxicity) versus Plasmodium falciparum K1, read-out: Ratio IC50

Row | Compound | selectivity ratio
29 | COC(=O)c1ccc2c(c1)c(NCCCNC(=O)CCC(=O)O[C@@H]1O[C@@H]3O[C@@]4(C)CC[C@H]5CCC[C@@H]([C@H]1C)[C@]53OO4)c1c3ccccc3nc-1n2C | 3720
30 | C[C@H]1[C@H](OC(=O)CCC(=O)NCC(C)(C)CNc2c3c4ccccc4nc-3n(C)c3ccc(Br)cc23)O[C@@H]2O[C@@]3(C)CC[C@H]4CCC[C@@H]1[C@]42OO3 | 1040
31 | NCCCNc1nc2ccccc2c2[nH]c3ccccc3c12 | 7.6
32 | C[C@H]1[C@H](OC(=O)CCC(=O)NCC(C)(C)CNc2c3c4ccccc4nc-3n(C)c3ccccc23)O[C@@H]2O[C@@]3(C)CC[C@H]4CCC[C@@H]1[C@]42OO3 | 3180
33 | COC(=O)c1ccc2c(c1)c(NCC(O)CNC(=O)CCC(=O)O[C@@H]1O[C@@H]3O[C@@]4(C)CC[C@H]5CCC[C@@H]([C@H]1C)[C@]53OO4)c1c3ccccc3nc-1n2C (stereo partly drawn) | 3060
